Laboratory results published in patent publication US20200147058A1, “KRAS INHIBITOR FOR USE IN TREATING CANCER” (Friedrich-Alexander-Universitat Erlangen-Numberg, priority 2016, published 2020).

Legend:
Format in all cases: cell-based, human
Mel Im cells [1] = test: long-term treatment, emergence of surviving tumor cells and drug resistance; conditions: 21 days, PLX increasing doses up to 20 μM, or 10 μM PLX + 5 μM DR
Source text: (§1) FIGS. 4A through 4H depict that small Molecule KRAS Inhibition Reduces Proliferation and Induces Apoptosis in Melanoma. FIGS. 4A and 4B show proliferation (slope of cell index) of Mel Juso (FIG. 4A) and Mel Im (FIG. 4B) cells treated with DMSO and different concentrations of the KRAS small molecule inhibitor Deltarasin (DR). The cell index as dimensionless parameter for cell proliferative ability was used to determine the half maximal inhibitory concentration (IC50, small graphs) of DR. […] FIG. 4D illustrates exemplary images of different melanoma cell lines (Mel Im, Mel Juso and Mel Ei) treated with 5 μM DR or 5 μM DMSO, respectively, for 24 hours. FIGS. 4E and 4F show images of fibroblast cell lines derived from two different donors (F1, F2) and melanocytes (NHEM) treated DR (20 μM, 48 hours) or DMSO (FIG. 4E), and lactate dehydrogenase (LDH) quantification (FIG. 4F) in cell supernatants (optic density, OD) of NHEM after treatment with low dose DMSO, DR (5 μM), and DR (10 μM), respectively.
FIGS. 6A through 6H depict that KRASi Prevents Emergence of Resistance and KRAS Expression is Regulated Dynamically in Acquired Resistance to BRAFi. […] Asterisks indicate significant differences (p<0.05) as compared to according control (0 μM PLX). […] Densitometric values (DM) are also shown, representing relative quantifications. […]

451Lu-wt = test: cell proliferation (slope of cell index); conditions: 10 μM PLX vs DMSO
Mel Juso cells [2] = test: three-dimensional, anchorage-independent colony-forming assay; conditions: Mel Juso (BRAFi primary resistant); DR 5 μM, PLX 10 μM, alone or combined
Source text: FIGS. 5A through 5D show time-dependent measurement of colony diameters (exemplary data in top panels) in three-dimensional, anchorage-independent “colony-forming” assays (FIGS. 5A and 5B: Mel Im, FIGS. 5C and 5D: Mel Juso). Exemplary Images (middle) and corresponding quantification of colony diameters (bottom panels, summarized data of n=3 experiments at day 19 after seeding) are also depicted. […] Effects on i) colony formation (FIGS. 5A and 5C, treatment at day 1) and ii) proliferation of pre-formed colonies (FIGS. 5B and 5D, treatment at day 7 and 13) were analyzed. […] Cells were treated for 5 hours with DMSO, 5 μM Deltarasin (DR), 10 μM PLX, or a combination of 10 μM PLX and 5 μM DR. […] (FIG. 5H) Mel Im and Mel Juso were transfected with control si-RNA (si-CTR) or with si-KRAS (si-KR). Two subgroups (blue and red) were additionally treated with 10 μM PLX (Vemurafenib) for 24 hours, with subsequent flow cytometric quantification of tumor cell apoptosis according to FIG. 5G.

Htz19 melanoma cells = test: FACS analysis of apoptosis; conditions: PLX 24 hours, alone or combined with RNAi-mediated KRAS knockdown
Mel Im cells [3] = test: FACS analysis of apoptosis (Annexin / propidium iodide)
Source text: as §1
(§2) FIGS. 5A through 5D show time-dependent measurement of colony diameters (exemplary data in top panels) in three-dimensional, anchorage-independent “colony-forming” assays (FIGS. 5A and 5B: Mel Im, FIGS. 5C and 5D: Mel Juso). Exemplary Images (middle) and corresponding quantification of colony diameters (bottom panels, summarized data of n=3 experiments at day 19 after seeding) are also depicted. Treatments were performed in four different groups (10 μM DMSO, 5 μM Deltarasin=DR, M PLX-4032=PLX (vemurafenib), or combination of 10 μM PLX+[…]). Effects on i) colony formation (FIGS. 5A and 5C, treatment at day 1) and ii) proliferation of pre-formed colonies (FIGS. 5B and 5D, treatment at day 7 and 13) were analyzed. […] FIG. 5F show images of PLX-primary resistant Mel Juso cells treated with DMSO, DR (5 μM), high dose PLX (20 μM) and a combination of 5 μM DR+10 μM PLX for 24 hours. […] Cells were treated for 5 hours with DMSO, 5 μM Deltarasin (DR), 10 μM PLX, or a combination of 10 μM PLX and 5 μM DR. According to exemplary images for Annexin and propidium iodide (PI) staining are depicted for Mel Im. (FIG. 5H) Mel Im and Mel Juso were transfected with control si-RNA (si-CTR) or with si-KRAS (si-KR). Two subgroups (blue and red) were additionally treated with 10 μM PLX (Vemurafenib) for 24 hours, with subsequent flow cytometric quantification of tumor cell apoptosis according to FIG. 5G. Exemplary images for Annexin and propidium iodide (PI) staining are depicted for Mel Im.

Mel Juso cells [4] = test: as above
Source text: as §1, §2

Mel Juso cells [5] = test: ERK-activation in BRAFi primary resistant cells; conditions: PLX
[6] = test system: KRAS mRNA in SkMel28-R and 451Lu-R cells; test: qRT-PCR of KRAS mRNA expression after PLX treatment; conditions: resistant and some non-resistant melanoma cell clones; 24-hour and 48-hour PLX treatment
Protocol: (§3) FIGS. 6A through 6H depict that KRASi Prevents Emergence of Resistance and KRAS Expression is Regulated Dynamically in Acquired Resistance to BRAFi. […] Asterisks indicate significant differences (p<0.05) as compared to according control (0 μM PLX). FIGS. 6E and 6F are exemplary Western blot images (FIG. 6E) depicting immunostaining of AKT, pAKT, ERK, pERK, and KRAS. Densitometric values (DM) are also shown, representing relative quantifications. Resistant cell lines 451Lu-R and SkMel28-R were treated with 0, 5, or 10 μM PLX for 8 hours, and according summarized quantification of KRAS protein expression (n=3, FIG. 6F).

[7] = test system: resistant cell lines 451Lu-R and SkMel28-R; test: Western blot of AKT, pAKT, ERK, pERK and KRAS
Protocol: as §3
After 48 hours of transfection with either control si-RNA (CTR) or si-KRAS (KR), cells were treated with different concentrations of PLX (0-10 μM). Data are represented as mean±SD in FIGS. 6A-6G and as mean±SEM in FIG. 6H. Ns: non-significant. *: p<0.05.

SkMel28-wt = test: cell proliferation (slope of cell index); conditions: 10 μM PLX vs DMSO
Protocol: as §3

[8] = test system: resistant cell clones (SkMel28-R, 451Lu-R); test: real-time cell proliferation of BRAFi-resistant melanoma cells; conditions: both resistant cell clones; 10 μM PLX vs DMSO
Protocol: as §3
FIGS. 7A through 7I present KRAS Inhibition Re-sensitizes BRAF Inhibitor Resistant Cells for Inhibition of Proliferation and Induction of Apoptosis. […] show real-time cell proliferation (exemplary proliferation curve depicted in FIG. 6A, summarized slopes of proliferation curves depicted in FIG. 6B) of PLX-resistant cells treated with si-KRAS (KR) or control si-RNA (CTR), respectively, in combination with 5 or 10 μM PLX. FIGS. 7C and 7D show real-time cell proliferation (exemplary proliferation curve depicted in […], summarized slopes of proliferation curves depicted in FIG. 7D) of PLX-resistant cells treated with Deltarasin (DR) or DMSO, respectively, in combination with 5 or 10 μM PLX, according to FIGS. 7A and 7B. […]

[9] = 10 μM PLX 24 hours, alone (si-CTR) or combined with RNAi-mediated KRAS knockdown
[10] = 5 hours, 5 μM DR, 10 μM PLX or combination

CCCS(=O)(=O)Nc1ccc(F)c(C(=O)c2c[nH]c3ncc(-c4ccc(Cl)cc4)cc23)c1F [PLX]
emergence of surviving tumor cells (acquired resistance) (Mel Im cells [1]): survival of a moderate proportion of tumor cells | cell proliferation (451Lu-wt): inhibited proliferation | three-dimensional colony formation and colony proliferation (Mel Juso cells [2]): enhanced | apoptosis (FACS) (Htz19 melanoma cells): slightly enhanced apoptosis | apoptosis (FACS) (Mel Im cells [3]; [9]): slightly enhanced apoptosis | apoptosis (FACS), short treatment (Mel Im cells [3]; [10]): insufficient to induce apoptosis | apoptosis (FACS) (Mel Juso cells [4]; [9]): did not cause apoptosis | apoptosis (FACS), short treatment (Mel Juso cells [4]; [10]): insufficient to induce apoptosis | ERK-activation (Mel Juso cells [5]): enhanced | KRAS mRNA expression (qRT-PCR) [6]: dose-dependent slight dynamic alteration | ERK activation (pERK) ([7]; PLX 0, 5 or 10 μM): increased ERK activation | activation of AKT (pAKT/AKT) ([7]; PLX doses): dose-dependently increased | KRAS protein expression (Western blot) ([7]; eight hours, 0, 5 or 10 μM PLX): dose-dependently enhanced | cell proliferation (SkMel28-wt): inhibited proliferation | cell proliferation [8]: enhanced
